# Results as given in PubChem BioAssay (NCI).
#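 Five concentrations, 48 hours, 96-well plates. Here, GI50 denotes the concentration required for 50% inhibition of growth. TGI: total growth inhibition.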
# Assays:
# Assay in all cases: NCI anticancer screen, dose series, 48 h
# RXF 393 renal = system: RXF 393 renal
# MOLT-4 leukemia = system: MOLT-4 leukemia
# RPMI-8226 leukemia = system: RPMI-8226 leukemia
# SK-OV-3 ovarian = system: SK-OV-3 ovarian
# UACC-62 melanoma = system: UACC-62 melanoma
# NCI-H460 lung = system: NCI-H460 lung
# MALME-3M melanoma = system: MALME-3M melanoma
# A498 renal = system: A498 renal
# MDA-MB-231 breast = system: MDA-MB-231 breast
# K-562 leukemia = system: K-562 leukemia
SMILES,TGI (RXF 393 renal) [µM],TGI (MOLT-4 leukemia) [µM],TGI (RPMI-8226 leukemia) [µM],TGI (SK-OV-3 ovarian) [µM],TGI (UACC-62 melanoma) [µM],TGI (NCI-H460 lung) [µM],TGI (MALME-3M melanoma) [µM],TGI (A498 renal) [µM],TGI (MDA-MB-231 breast) [µM],TGI (K-562 leukemia) [µM],GI50 (RXF 393 renal) [µM],GI50 (MOLT-4 leukemia) [µM],GI50 (SK-OV-3 ovarian) [µM],GI50 (UACC-62 melanoma) [µM],GI50 (NCI-H460 lung) [µM],GI50 (MALME-3M melanoma) [µM]
COc1cccc(N/C(C)=C2/CCOC2=O)c1,> 10,> 10,> 10,> 10,> 10,> 10,> 10,> 10,> 10,,,,,,,
[N-]=[N+]=CC(=O)C1(C(=O)C=[N+]=[N-])CC1,> 100,> 100,,> 100,,> 100,> 100,> 100,,> 100,,,,,,
COc1ccc(C=Nc2ccc(-c3nc4ccccc4s3)cc2)cc1OC,62.4,84.4,> 100,> 100,47.2,67.6,89.2,46.2,,> 100,,,,,,
CCOC(=O)/C(Br)=C1\OC(=O)c2ccccc2-c2ccccc21,,65.5,> 100,> 100,> 100,,> 100,,,> 100,,,,,,
C/C=C1\CC(C(=O)OCC)CCCCCCC1=O (stereo not given),> 100,> 100,,> 100,> 100,,> 100,> 100,> 100,,,,,,,
Cc1cc(N(CCC#N)S(=O)(=O)c2ccccc2)ccc1C=Nc1cccc(C(=O)O)c1,> 100,> 100,> 100,> 100,> 100,> 100,> 100,,,> 100,,,,,,
C[C@@H]1C[C@H]2OC(=O)[C@@]3(C)CCC[C@@](C)([C@@H]23)[C@@]1(O)CCc1ccoc1,> 100,> 94.4,> 100,> 100,> 100,> 100,,> 100,> 100,> 100,,,,,,
Cc1ccc(S(=O)(=O)N(CC(O)COc2ccccc2)c2c(F)c(F)cc(F)c2F)cc1 (stereo not given),,2.25,41.4,47.2,37.5,35.3,64.1,39,50.8,,,,,,,
COc1cc(C2CC(C)(N3CCOCC3)Oc3cc4c(cc32)OCO4)cc(OC)c1OC (stereo not given),,> 100,0.151,> 80.5,> 100,> 100,> 100,,> 100,> 100,,,,,,
CCC(=O)OC1CCn2c1nc1c2C(=O)C(C)=C(NC(C)=O)C1=O (stereo not given),3.11,,5.66,11.4,3.43,14.1,2.96,32.5,,4.43,,,,,,
CC(C)OP(=O)(OC(C)C)C(=NCCO)NNc1ccc([N+](=O)[O-])cc1,,> 100,> 100,,> 100,> 100,> 100,> 100,,> 100,,,,,,
c1ccc(CN2CCC(=NN3CCCCC3)CC2)cc1,> 100,> 100,66.3,> 100,> 100,> 100,> 100,,> 100,> 100,,,,,,
CCOC(=O)Cc1c(C)c2ccc(OC(C)=O)c(OC(C)=O)c2oc1=O,,> 100,> 100,> 100,90,,> 100,> 100,> 100,71.9,,,,,,
Clc1ccc(Nc2ncco2)cc1Cl,,> 10,,> 10,> 10,> 10,> 10,> 10,> 10,> 10,,,,,,
CC1=C(C(=O)NNC(=O)Cc2ccccc2)CC(C(=O)NNC(=O)Cc2ccccc2)=C(C)N1,> 100,,,> 100,> 100,> 100,,> 100,> 100,,,,,,,
O=C(NN1C(=O)C(Cl)C1c1cccc(O)c1)c1ccccc1O (stereo not given),> 100,> 100,,> 100,> 100,> 100,> 100,> 100,,> 100,,,,,,
CON(C)c1nc(N)c(C#N)c(C#N)c1C#N,> 10,> 10,> 10,> 10,> 10,> 10,> 10,> 10,> 10,,,,,,,
CC(=O)c1ccc(N2C(=O)C3c4[nH]c5ccccc5c4C4CCC(C(C)(C)C)CC4C3C2=O)cc1 (stereo not given),32.7,> 100,54,> 100,59.3,,34.4,71.3,,> 100,,,,,,
C=CCn1c(-c2cc(C(C)(C)C)c(O)c(C(C)(C)C)c2)cs/c1=N\C(P(=O)(O)O)P(=O)(O)O,,> 100,> 100,> 100,,> 100,> 100,> 100,> 100,> 100,,,,,,
Cc1ccc(S(=O)(=O)NC(=O)Nc2c(S(N)(=O)=O)cc(S(N)(=O)=O)c(Cl)c2Cl)cc1,,> 100,> 100,> 100,> 100,> 100,> 100,> 100,> 100,> 100,,,,,,
COc1ccc(-c2nc(-c3ccc(OC)cc3)n(-c3ccccc3)n2)cc1,> 100,> 100,,> 100,> 100,> 100,,> 100,> 100,,,,,,,
CC[C@H](C)[C@H](NC(=O)N(CCC#N)CCN(CCN(C(=O)N[C@@H](Cc1ccccc1)C(=O)OC)c1ccccc1)C(=O)N[C@H](C(=O)OC)C(C)C)C(=O)OC,37.8,24.7,29.1,41.2,28.6,,35,36.8,47.1,,,,,,,
c1ccc2c(c1)nnn2CNc1ccc(N2CCCCC2)cc1,> 100,> 100,> 100,> 100,> 100,> 100,> 100,> 100,,> 100,,,,,,
C=C1CC[C@@]2(C)[C@@H]([C@@H]1C)[C@H]1CC[C@@H]3[C@@]4(C)CC[C@H](O)C(C)(C)[C@@H]4CC[C@@]3(C)[C@]1(C)C[C@@H]2O,4.04,> 100,> 100,51.3,28.2,4.7,12.3,4.35,4.75,,,,,,,

SMILES,TGI (RXF 393 renal) [µM],TGI (MOLT-4 leukemia) [µM],TGI (RPMI-8226 leukemia) [µM],TGI (SK-OV-3 ovarian) [µM],TGI (UACC-62 melanoma) [µM],TGI (NCI-H460 lung) [µM],TGI (MALME-3M melanoma) [µM],TGI (A498 renal) [µM],TGI (MDA-MB-231 breast) [µM],TGI (K-562 leukemia) [µM],GI50 (RXF 393 renal) [µM],GI50 (MOLT-4 leukemia) [µM],GI50 (SK-OV-3 ovarian) [µM],GI50 (UACC-62 melanoma) [µM],GI50 (NCI-H460 lung) [µM],GI50 (MALME-3M melanoma) [µM]
CN1C(=O)N(C)C2(CCN(CC(CC3OCCO3)c3ccc(F)cc3)CC2)C1=O (stereo not given),> 100,> 100,> 100,> 100,> 100,,> 100,> 100,> 100,> 100,,,,,,
N/C(=N\N=C\c1cc2ccccc2s1)c1cnccn1,> 100,,> 100,> 100,> 100,> 100,,> 100,> 100,> 100,,,,,,
Oc1ccc(-c2c3ccccc3c(-c3ccc(O)cc3)c3ccccc23)cc1,> 100,> 100,> 100,> 100,> 100,> 100,> 100,> 100,,> 100,,,,,,
O=[N+]([O-])c1ccc(CSc2nn(Cc3ccc([N+](=O)[O-])cc3)cc3ncnc2-3)cc1,,> 100,75,> 100,40.7,,65.2,58.8,> 100,> 100,,,,,,
CC1(CO)C(O)CCC2(C)C1CCC1CC3CC12CCC3(O)CO (stereo not given),> 100,> 100,> 100,> 100,> 100,> 100,> 100,99,,> 100,,,,,,
Cc1ccc2nc(N)[nH]c(=O)c2c1Sc1ccncc1,> 100,> 100,> 100,> 100,> 31.6,> 100,> 100,> 100,,> 31.6,,,,,,
N#C/C(=C\c1ccc(O)c(O)c1)c1c(C#N)c(N)nn1-c1ccccc1,,,,36.5,> 100,38.3,26.8,9.63,,55.9,,,,,,
O=C([CH-]C(=O)c1ccccc1)c1ccccc1.[C-]#[O+].[C-]#[O+].[Ir],> 100,> 100,,> 100,> 100,> 100,> 100,,,,33.6,56.7,> 100,42.1,39.7,> 100
Oc1cc(O)c2c(c1)O[C@H](c1ccc(O)c(O)c1)[C@@H](O)C2,,> 100,> 100,,,> 100,> 100,,> 100,> 100,,,,,,
O=C(N/N=C(/COc1ccccc1)N=Cc1ccncc1)c1ccncc1,> 100,> 100,> 100,> 100,> 100,> 100,,> 100,> 100,> 100,,,,,,
O=C(Nc1ccccc1)c1cc2ccccc2c(N=Nc2cccc([N+](=O)[O-])c2)c1O,> 100,> 100,,> 100,> 100,> 100,> 100,> 100,> 100,> 100,,,,,,
COc1c(C)c(C/C=C(\C)CC/C=C(\C)CC/C=C(\C)CCC=C(C)C)c(OC)c(OC)c1OC,> 100,> 100,,> 100,> 100,> 100,,,> 100,> 100,,,,,,
CCN(CC)CC1CCCCN1CC(=O)N1c2cc(Cl)ccc2NC(=O)CC1C (stereo not given),,> 100,> 100,> 100,> 100,> 100,> 100,> 100,,> 100,,,,,,
O=Cc1c2c(cc3c1CC1(C3)Cc3cc4c(c(C=O)c3C1)CCCC4)CCCC2,> 31.6,23.2,30.3,> 31.6,> 31.6,> 100,> 31.6,,> 31.6,54.1,,,,,,
Cc1ccc(Nc2c3c(c(C#N)c4nc5ccccc5n24)CCCC3)cc1,,40.6,,> 100,71.2,> 100,77.9,,62.4,> 100,,,,,,
CC(=O)Nc1ccc(NC(=O)CC(=O)Nc2ccc(NC(C)=O)cc2)cc1,,> 100,> 100,65.9,23.4,> 100,> 100,> 100,> 100,> 100,,,,,,
O=S(=O)(O)c1ccc2c(N=Nc3cccc4ccccc34)c(O)ccc2c1,> 100,> 100,> 100,> 100,> 100,,> 100,> 100,> 100,> 100,,,,,,
CC(=O)Nc1ccc(-c2nnc(SCC(=O)Nc3cccc(C)c3)o2)cc1,25.9,> 100,67,81.5,20.9,28.6,27.2,,,> 100,,,,,,
CN(C)CCCNC(=O)N/N=C/c1ccc(O)cc1,,> 100,,> 100,> 100,> 100,> 100,> 100,> 100,> 100,,,,,,
COc1ccccc1-n1cnc2c1NC(C)(C)N=C2C(N)=O,> 100,,> 100,> 100,> 100,> 100,> 100,> 100,> 100,> 100,,,,,,
Cc1ccc(S(=O)(=O)NC(=O)C2S(=O)(=O)OCCOS2(=O)=O)cc1,,,> 100,> 100,> 100,,> 100,,,> 100,,,,,,
COC(CNC(=O)CNC(=O)c1ccc(C(F)(F)F)cc1)OC,> 100,> 100,> 100,> 100,> 100,> 100,> 100,,> 100,> 100,,,,,,
CC(=O)N1C(C(=O)NN2CCOCC2)CSC1c1ccccc1 (stereo not given),,> 100,> 100,> 100,> 100,> 100,> 100,> 100,> 100,> 100,,,,,,
CCCCn1c(-c2ccccc2)cs/c1=N\N=C1C=C(C(C)(C)C)C(=O)C(C(C)(C)C)=C1,> 100,> 100,,,> 100,> 100,> 100,> 100,,> 100,,,,,,
